Measurements: EPA's ToxValDB 9.5
Structures can show the parent of a compound that is named as a salt.

Tested on: Rattus norvegicus
Settings: oral
[1] = subchronic, gavage, M, Sprague-Dawley, Clinical Observation: Salivation + Water Consumption: increase + Urinalysis: Urinary volume increase + Thyroid Hormone: Thyroid hormones', '…
[2] = short-term, duration: 28 days, gavage, F, Sprague-Dawley, Clinical Observation: Piloerection + Urinalysis: pH decrease, K decrease + Relative Organ Weight: Spleen increase
[3] = short-term, duration: 28 days, gavage, M, Sprague-Dawley, Clinical Observation: Piloerection + Urinalysis: pH decrease, K decrease + Relative Organ Weight: Spleen increase

**Q.** For `O=C(Cl)c1ccc(Cl)cc1` [4-Chlorobenzoyl chloride], which LOEL [1] is on record?
**A.** Its LOEL is 500 mg/kg-day.

**Q.** And the NOEL [1]?
**A.** The NOEL was 100 mg/kg-day.

**Q.** Which NOEL (subchronic, duration: 13 weeks, diet, M/F, Fischer 344, Histopathology: Spleen-Congestion Spleen-Extramedullary hematopoiesis Spleen-Hemosiderosis Spleen-Thickened capsule Spleen-Lymphoid atrophy …) does the source give for `Cl.Nc1ccccc1-c1ccccc1` [2-Biphenylamine hydrochloride] here?
**A.** The NOEL was 28.8 mg/kg-day.

**Q.** How did the NOEL (subchronic, duration: 13 weeks, diet, M/F, Fischer 344, Body Weight Changes: decrease) turn out when `[Cl][Sn][Cl]` [Stannous chloride] was run?
**A.** Its NOEL is 365 mg/kg-day.

**Q.** What does the source list for `O=C(O)c1cccc([N+](=O)[O-])c1C(=O)O` [3-Nitrophthalic acid]?
**A.** NOAEL [2]: 500 mg/kg-day; NOEL [2]: 500 mg/kg-day; LOEL [3]: 500 mg/kg-day; NOAEL [3]: 500 mg/kg-day; NOEL [3]: 100 mg/kg-day

**Q.** With `CN1C(=O)C(O)N=C(c2ccccc2Cl)c2cc(Cl)ccc21` (stereo unspecified) [Lormetazepam] as the compound, how does the NOEL (subchronic, duration: 35 days, gavage, F, Sprague-Dawley, Clinical Observation: Locomotor activity decrease, Drowsiness Aggression + Body Weight Changes: Body weight gain increase + Food Consumption…) read?
**A.** Its NOEL is 4 mg/kg-day.

**Q.** What about the NOEL (subchronic, duration: 35 days, gavage, M, Sprague-Dawley, Clinical Observation: Locomotor activity decrease, Drowsiness Aggression + Body Weight Changes: Body weight gain increase + Food Consumption…) of the same compound?
**A.** The NOEL was 20 mg/kg-day.

**Q.** Which results are given for `CCC(C)c1cc(C(C)(C)C)cc(-n2nc3ccccc3n2)c1O` (stereo unspecified) [2-(2H-Benzotriazol-2-yl)-6-(butan-2-yl)-4-tert-butylphenol]?
**A.** NOAEL (subchronic, duration: 42 days, gavage, M, Sprague-Dawley, Hematology: HGB decrease + Blood Chemistry: TP increase, Alb increase, A/G increase, ALP increase, ChE increase + Absolute Organ Weight: …): 4 mg/kg-day; NOEL (subchronic, gavage, M, Sprague-Dawley, Blood Chemistry: TG decrease PL decrease Alb increase A/G increase Alp increase + Absolute Organ Weight: Liver increase + Relative Organ …): < 0.5 mg/kg-day

**Q.** Which NOAEL (short-term, duration: 28 days, gavage, M/F, Sprague-Dawley, Deaths + Clinical Observation: Locomotor activity decrease, Ataxic gait Hypotonia, Abdominal region + Body Weight Changes: Body weight gain …) does the source give for `NS(=O)(=O)Cc1noc2ccccc12` [Zonisamide] here?
**A.** The NOAEL was 20 mg/kg-day.

**Q.** Which NOEL (short-term, duration: 28 days, gavage, M/F, Deaths + Clinical Observation: Locomotor activity increase, Tremor (temporary)Loss of righting reflex Motor ataxia Lethargy (severe) + Blood…) does the source give for `COc1cc(N)ccc1NC(=O)c1ccc(N)cc1` [4-Amino-N-(4-amino-2-methoxyphenyl)benzamide] here?
**A.** Its NOEL is 10 mg/kg-day.

**Q.** For `CC(C)(C)c1cc(C(=O)O)c(O)c(C(C)(C)C)c1` [Benzoic acid, 3,5-bis(1,1-dimethylethyl)-2-hydroxy-], which NOEL (subchronic, gavage, M, Sprague-Dawley, Blood Chemistry: ALT(GPT) increase, TG increase + Absolute Organ Weight: Liver increase + Relative Organ Weight: Liver increase) is on record?
**A.** Its NOEL is 20 mg/kg-day.

**Q.** With `COC(=O)C1=C(C)NC(C)=C(C(=O)OCCN(C)Cc2ccccc2)C1c1cccc([N+](=O)[O-])c1.Cl` (stereo unspecified) [Nicardipine hydrochloride] as the compound, how does the NOEL (subchronic, duration: 35 days, gavage, M/F, Sprague-Dawley, Deaths + Clinical Observation: Locomotor activity decrease, Prone position Dyspnea Ataxic gait Ptosis Piloerection Respiratory rate increase…) read?
**A.** The NOEL was 10 mg/kg-day.

**Q.** Which NOEL (short-term, duration: 28 days, gavage, M/F, Wistar, Body Weight Changes: decrease + Food Consumption: decrease + Hematology: Hct decrease, Plt decrease, WBC decrease, APTT increase + Blood …) does the source give for `S=c1[nH]c2ccccc2[nH]1` [2-Mercaptobenzimidazole] here?
**A.** The NOEL was < 2 mg/kg-day.

**Q.** Which NOEL (subchronic, diet, M/F, Fischer 344, Body Weight Changes: decrease + Hematology: Hct decrease, RBC decrease, Hgb decrease + Blood Chemistry: Cho increase, gamma-GTP increase + …) does the source give for `CN(C)c1ccc(C(=C2C=CC(=[N+](C)C)C=C2)c2ccccc2)cc1.[Cl-]` [Malachite green] here?
**A.** Its NOEL is 12 mg/kg-day.

**Q.** For `COC(CCl)OC` [Ethane, 2-chloro-1,1-dimethoxy-], which NOEL (short-term, duration: 28 days, gavage, M/F, Blood Chemistry: GPT increase, ALP increase, T-Bil increase, IP decrease + Organ Weight: Liver increase, Spleen decrease, Kidney increase, …) is on record?
**A.** The NOEL was 15 mg/kg-day.

**Q.** How did the NOEL (subchronic, gavage, M, Sprague-Dawley, Clinical Observation: Emaciation R Incontinence of urine R Diarrhea R Loose stool R + Relative Organ Weight: Thymus increase, Kidney …) turn out when `NNC(=O)CCCCC(=O)NN` [Hexanedihydrazide] was run?
**A.** Its NOEL is 85 mg/kg-day.

**Q.** For `CCC[CH2][Sn]([CH2]CCC)([CH2]CCC)[CH2]CCC` [Tetrabutyltin], which NOAEL (subchronic, duration: 33 days, diet, M, Wistar, Body Weight Changes: Weight gain decrease + Absolute Organ Weight: Thymus decrease + Relative Organ Weight: Thymus decrease, Spleen decrease…) is on record?
**A.** The NOAEL was 9.6 mg/kg-day.

**Q.** `Oc1ccc(Cl)cc1Cc1ccccc1` [Clorophene] was tested. Which NOEL (subchronic, duration: 13 weeks, gavage, M/F, Fischer 344, Deaths + Clinical Observation: Red-yellow staining of urogenital region hair coat Alopecia of head Brown discoloration of hair coat around …) did it give?
**A.** The NOEL was < 30 mg/kg-day.

**Q.** With `CCCCCOC(=O)c1c(Cl)c(Cl)cc(Cl)c1OC(=O)C(=O)Oc1c(Cl)cc(Cl)c(Cl)c1C(=O)OCCCCC` [Bis(2,4,5-trichloro-6-carbopentoxyphenyl) oxalate] as the compound, how does the NOEL (short-term, duration: 28 days, gavage, M/F, Deaths + Clinical Observation: Salivation + Hematology: PT increase, APTT increase + Blood Chemistry: TP increase, ALB increase, TG …) read?
**A.** Its NOEL is < 8 mg/kg-day.

**Q.** Which results are given for `CCCC(C)(COC(N)=O)COC(=O)NC(C)C` (stereo unspecified) [Carisoprodol]?
**A.** NOEL (subchronic, gavage, M/F, Fischer 344, Deaths + Clinical Observation: Lethargy Ataxia + Absolute Organ Weight: Right kidney increase, Liver increase + Relative Organ Weight: Right…): < 100 mg/kg-day; NOEL (subchronic, gavage, M/F, Fischer 344, Deaths + Clinical Observation: Lethargy Diarrhea Rough hair coat Prostration Urine stain in the vaginal area Ataxia + Body Weight Changes: …): < 100 mg/kg-day
